Assay results: patent US20080161232A1, “C5a Receptor Antagonist” (JERINI AG, priority 2005, published 2008)
Starred links: 1 amine or outer side, 2 acyl side, 3 side chain; linkers in the order of their positions; H or OH if unused. Positions of bridges follow the written chain, without caps; N, C: chain ends. Non-standard residues stand in square brackets, D forms with d. Residues, ends and D or L forms follow the SMILES beside them. *: point of attachment. Orn(2-imidazolinyl) = N[C@@H](CCCNC1=NCCN1)C(=O)O; X6 = O=C([C@H](C[S+]([O-])Cc1cccnc1)N[*:1])[*:2]; Phe(3,4-Cl2) = N[C@@H](Cc1ccc(Cl)c(Cl)c1)C(=O)O; Phe(3-Cl) = N[C@@H](Cc1cccc(Cl)c1)C(=O)O; Phe(4-F) = N[C@@H](Cc1ccc(F)cc1)C(=O)O; Phe(4-Me) = Cc1ccc(C[C@H](N)C(=O)O)cc1; Bta = N[C@@H](Cc1csc2ccccc12)C(=O)O; Hyp = O=C(O)[C@@H]1C[C@@H](O)CN1; d(hLeu) = CC(C)CC[C@@H](N)C(=O)O; Tic = O=C(O)[C@@H]1Cc2ccccc2CN1; dCha = N[C@H](CC1CCCCC1)C(=O)O; dChg = N[C@@H](C(=O)O)C1CCCCC1; NHPhenethyl = c1ccc(CCN*)cc1; X23 = O=C(CC(O)c1ccccc1)*; Nle = CCCC[C@H](N)C(=O)O; Orn = NCCC[C@H](N)C(=O)O; Aze = O=C(O)[C@@H]1CCN1; Nva = CCC[C@H](N)C(=O)O; X13 = c1ccc2c(c1)nnn2C*; CO = O=C([*:1])[*:2]; Acm = CC(=O)NC*; tBu = CC(C)(C)*; NHBu = CCCCN*

target: T1, human C5aR(CD88) (Homo sapiens, UniProt P21730); assay: Determination of the IC50 value in an enzyme release assay (functional assay, antagonistic activity); assay type: cell-based; conditions: antagonistic activity; IC50 group in enzyme release assay, RBL cells expressing human C5aR(CD88); read-out: activity (group)
T1 construct: expressed in transfected cells; host or cells: rat basophilic leukemia cells (RBL)
T1 sequence (P21730 1-350): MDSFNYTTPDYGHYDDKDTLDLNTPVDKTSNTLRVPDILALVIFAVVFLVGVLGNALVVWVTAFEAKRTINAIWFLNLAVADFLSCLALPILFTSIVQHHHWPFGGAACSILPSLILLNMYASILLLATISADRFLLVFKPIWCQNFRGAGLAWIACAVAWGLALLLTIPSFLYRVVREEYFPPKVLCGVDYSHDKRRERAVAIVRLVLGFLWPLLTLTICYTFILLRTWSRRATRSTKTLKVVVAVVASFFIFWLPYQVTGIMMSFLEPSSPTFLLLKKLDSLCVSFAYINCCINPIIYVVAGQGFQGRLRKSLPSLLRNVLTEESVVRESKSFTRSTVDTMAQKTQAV

Structure (SMILES) | IC50 [nM]
CCCC[C@@H]1NC(=O)[C@H](Cc2csc3ccccc23)NC(=O)[C@@H](CC2CCCCC2)NC(=O)[C@@H]2CCCN2C(=O)[C@@H](NCc2ccccc2)CCCNC1=O [Compound 315, Bzl-[Orn-Pro-cha-Bta-Nle]] | 50 to 200
CC(=O)N[C@@H](Cc1ccccc1)C(=O)N[C@@H](CSCn1nnc2ccccc21)C(=O)N1CCC[C@H]1C(=O)N[C@H](CC1CCCCC1)C(=O)N[C@@H](Cc1csc2ccccc12)C(=O)N[C@@H](Cc1ccccc1)C(N)=O [Compound 119, Ac-Phe-Eec-Pro-cha-Bta-Phe-NH2] (Ac-FC(X13)P[dCha][Bta]F-NH2) | 50 to 200
CCC[C@@H]1NC(=O)[C@H](Cc2c[nH]c3ccccc23)NC(=O)[C@@H](CC2CCCCC2)NC(=O)[C@@H]2CCCN2C(=O)[C@@H](NC(=O)[C@H](Cc2ccccc2)NC(C)=O)CCCNC1=O [Compound 31, Ac-Phe-[Orn-Pro-cha-Trp-Nva]] (Ac-F[Orn]P[dCha]W[Nva]; lactam 2-C) | 10 to 20
CC(=O)N[C@@H](Cc1ccccc1)C(=O)N[C@H]1CCCNC(=O)[C@H](Cc2ccc(O)cc2)NC(=O)[C@H](Cc2c[nH]c3ccccc23)NC(=O)[C@@H](CC2CCCCC2)NC(=O)[C@@H]2CCCN2C1=O [Compound 146, Ac-Phe-[Orn-Pro-cha-Trp-Tyr]] (Ac-F[Orn]P[dCha]WY; lactam 2-C) | 20 to 50
CC(=O)N[C@@H](Cc1ccccc1)C(=O)N[C@@H](CCCN)C(=O)N1CCC[C@H]1C(=O)N[C@H](CC1CCCCC1)C(=O)N[C@@H](Cc1c[nH]c2ccccc12)C(=O)NCCc1ccccc1 [Compound 72, Ac-Phe-Orn-Pro-cha-Trp-NH—CH2—CH2-Ph] (Ac-F[Orn]P[dCha]W-NHPhenethyl) | 200 to 2000
CC(=O)NCSC[C@H](NC(=O)[C@H](Cc1ccccc1)NC(C)=O)C(=O)N1CCC[C@H]1C(=O)N[C@H](CC1CCCCC1)C(=O)N[C@@H](Cc1csc2ccccc12)C(=O)N[C@@H](Cc1ccccc1)C(N)=O [Compound 123, Ac-Phe-Cys(Acm)-Pro-cha-Bta-Phe-NH2] (Ac-FC(Acm)P[dCha][Bta]F-NH2) | 200 to 2000
CC(=O)N[C@@H](Cc1ccccc1)C(=O)N[C@@H](CCCN)C(=O)N1CCC[C@H]1C(=O)N[C@H](CC1CCCCC1)C(=O)N[C@@H](Cc1csc2ccccc12)C(=O)N[C@@H](Cc1cccc(Cl)c1)C(N)=O [Compound 254, Ac-Phe-Orn-Pro-cha-Bta-Mcf-NH2] (Ac-F[Orn]P[dCha][Bta][Phe(3-Cl)]-NH2) | 50 to 200
CC(=O)N[C@@H](Cc1ccccc1)C(=O)N[C@@H](CCCN)C(=O)N1Cc2ccccc2C[C@H]1C(=O)N[C@H](CC1CCCCC1)C(=O)N[C@@H](Cc1c[nH]c2ccccc12)C(=O)N[C@@H](Cc1ccccc1)C(N)=O [Compound 107, Ac-Phe-Orn-Tic-cha-Trp-Phe-NH2] (Ac-F[Orn][Tic][dCha]WF-NH2) | 50 to 200
CC(=O)N[C@@H](Cc1ccccc1)C(=O)N[C@@H](CCCN)C(=O)N1CCC[C@H]1C(=O)N[C@H](CSC(C)(C)C)C(=O)N[C@@H](Cc1ccc(Cl)c(Cl)c1)C(=O)N[C@@H](Cc1ccccc1)C(N)=O [Compound 264, Ac-Phe-Orn-Pro-ctb-Eaa-Phe-NH2] (Ac-F[Orn]P[dC](tBu)[Phe(3,4-Cl2)]F-NH2) | 20 to 50
CC(=O)N[C@@H](Cc1ccccc1)C(=O)N[C@@H](C)C(=O)N1CCC[C@H]1C(=O)N[C@H](CC1CCCCC1)C(=O)N[C@@H](Cc1csc2ccccc12)C(=O)N[C@@H](Cc1ccccc1)C(N)=O [Compound 206, Ac-Phe-Ala-Pro-cha-Bta-Phe-NH2] (Ac-FAP[dCha][Bta]F-NH2) | 50 to 200
CC(=O)N[C@@H](Cc1ccccc1)C(=O)N[C@@H](CCCN)C(=O)N1CCC[C@H]1C(=O)N[C@H](CCC(C)C)C(=O)N[C@@H](Cc1ccccc1)C(=O)N[C@@H](Cc1ccccc1)C(N)=O [Compound 304, Ac-Phe-Orn-Pro-hle-Phe-Phe-NH2] (Ac-F[Orn]P[d(hLeu)]FF-NH2) | 50 to 200
N[C@@H](Cc1ccccc1)C(=O)N[C@H]1CCCNC(=O)[C@H](Cc2ccccc2)NC(=O)[C@H](Cc2c[nH]c3ccccc23)NC(=O)[C@@H](CC2CCCCC2)NC(=O)[C@H](CO)NC1=O [Compound 383, H-Phe-[Orn-Ser-cha-Trp-Phe]] (H-F[Orn]S[dCha]WF; lactam 2-C) | 20 to 50
CCCC[C@@H]1NC(=O)[C@H](Cc2ccc(F)cc2)NC(=O)[C@@H](CCC(C)C)NC(=O)[C@@H]2C[C@@H](O)CN2C(=O)[C@@H](NC(=O)[C@@H](N)Cc2ccccc2)CCCNC1=O [Compound 365, H-Phe-[Orn-Hyp-hle-Pff-Nle]] (H-F[Orn][Hyp][d(hLeu)][Phe(4-F)][Nle]; lactam 2-C) | 50 to 200
CCCC[C@@H]1NC(=O)[C@H](Cc2c[nH]c3ccccc23)NC(=O)[C@@H](CC2CCCCC2)NC(=O)[C@@H]2CCN2C(=O)[C@@H](NC(=O)[C@H](Cc2ccccc2)NC(C)=O)CCCNC1=O [Compound 174, Ac-Phe-[Orn-Aze-cha-Trp-Nle]] (Ac-F[Orn][Aze][dCha]W[Nle]; lactam 2-C) | 50 to 200
CC(=O)N[C@@H](Cc1ccccc1)C(=O)N[C@H]1CCCNC(=O)[C@H](C[S+]([O-])Cc2cccnc2)NC(=O)[C@H](Cc2c[nH]c3ccccc23)NC(=O)[C@@H](CC2CCCCC2)NC(=O)[C@@H]2CCCN2C1=O (stereo partly drawn) [compound 16] (Ac-F[Orn]P[dCha]W[X6]; lactam 2-C) | 200 to 2000
CCCC[C@@H]1NC(=O)[C@H](Cc2c[nH]c3ccccc23)NC(=O)[C@@H](CC2CCCCC2)NC(=O)[C@@H]2C[C@@H](O)CN2C(=O)[C@@H](NC(=O)[C@@H](N)Cc2ccccc2)CCCNC1=O [Compound 356, H-Phe-[Orn-Hyp-cha-Trp-Nle]] (H-F[Orn][Hyp][dCha]W[Nle]; lactam 2-C) | 20 to 50
CC(=O)N[C@@H](Cc1ccccc1)C(=O)N[C@@H](CCCN)C(=O)N1CCC[C@H]1C(=O)N[C@H](CCC(C)C)C(=O)N[C@@H](Cc1cccc(Cl)c1)C(=O)N[C@@H](Cc1ccc(F)cc1)C(N)=O [Compound 290, Ac-Phe-Orn-Pro-hle-Mcf-Pff-NH2] (Ac-F[Orn]P[d(hLeu)][Phe(3-Cl)][Phe(4-F)]-NH2) | 50 to 200
CCCC[C@@H]1NC(=O)[C@H](Cc2c[nH]c3ccccc23)NC(=O)[C@@H](CC2CCCCC2)NC(=O)[C@@H]2CCCN2C(=O)[C@@H](NC(=O)CC(O)c2ccccc2)CCCNC1=O (stereo partly drawn) [Compound 59, Ph-CH(OH)—CH2—CO-[Orn-Pro-cha-Trp-Nle]] (X23-[Orn]P[dCha]W[Nle]; lactam 1-C) | 20 to 50
CC(=O)N[C@@H](Cc1ccccc1)C(=O)N[C@@H](CCCNC1=NCCN1)C(=O)N1CCC[C@H]1C(=O)N[C@H](CC1CCCCC1)C(=O)N[C@@H](Cc1csc2ccccc12)C(=O)N[C@@H](Cc1ccccc1)C(N)=O [Compound 225, Ac-Phe-Ffa-Pro-cha-Bta-Phe-NH2] (Ac-F[Orn(2-imidazolinyl)]P[dCha][Bta]F-NH2) | 20 to 50
CCCCNC(=O)N[C@@H](Cc1ccccc1)C(=O)N[C@@H](CCCN)C(=O)N1CCC[C@H]1C(=O)N[C@H](CC1CCCCC1)C(=O)N[C@@H](Cc1c[nH]c2ccccc12)C(=O)N[C@@H](Cc1ccccc1)C(N)=O [Compound 76, Bu-NH—CO-Phe-Orn-Pro-cha-Trp-Phe-NH2] ({NHBu-CO}-F[Orn]P[dCha]WF-NH2) | 200 to 2000
CC(=O)N[C@@H](CCCCN)C(=O)N[C@@H](Cc1ccccc1)C(=O)N[C@@H](CCCN)C(=O)N1CC[C@H]1C(=O)N[C@H](CC1CCCCC1)C(=O)N[C@@H](Cc1csc2ccccc12)C(=O)N[C@@H](Cc1ccccc1)C(N)=O [Compound 160, Ac-Lys-Phe-Orn-Aze-cha-Bta-Phe-NH2] (Ac-KF[Orn][Aze][dCha][Bta]F-NH2) | 20 to 50
CC(=O)N[C@@H](Cc1ccccc1)C(=O)N[C@@H](CCC(N)=O)C(=O)N1CCC[C@H]1C(=O)N[C@H](CC1CCCCC1)C(=O)N[C@@H](Cc1c[nH]c2ccccc12)C(=O)N[C@@H](Cc1ccccc1)C(N)=O [Compound 89, Ac-Phe-Gln-Pro-cha-Trp-Phe-NH2] (Ac-FQP[dCha]WF-NH2) | 200 to 2000
CCCC[C@@H]1NC(=O)[C@H](Cc2c[nH]c3ccccc23)NC(=O)[C@@H](CC2CCCCC2)NC(=O)[C@@H]2CCCN2C(=O)[C@@H](NCc2ccccc2)CCCNC1=O [Compound 56, Ph-CH2-[Orn-Pro-cha-Trp-Nle]] | 20 to 50
CC(=O)N[C@@H](Cc1ccccc1)C(=O)N[C@@H](CCCN)C(=O)N1CCC[C@H]1C(=O)N[C@H](CC1CCCCC1)C(=O)N[C@@H](Cc1csc2ccccc12)C(=O)N[C@@H](Cc1ccc(C)cc1)C(N)=O [Compound 260, Ac-Phe-Orn-Pro-cha-Bta-Pmf-NH2] (Ac-F[Orn]P[dCha][Bta][Phe(4-Me)]-NH2) | 20 to 50
CC(=O)NCC(=O)N[C@@H](Cc1ccccc1)C(=O)N[C@@H](CCCN)C(=O)N1CC[C@H]1C(=O)N[C@@H](C(=O)N[C@@H](Cc1csc2ccccc12)C(=O)N[C@@H](Cc1ccccc1)C(N)=O)C1CCCCC1 [Compound 155, Ac-Gly-Phe-Orn-Aze-chg-Bta-Phe-NH2] (Ac-GF[Orn][Aze][dChg][Bta]F-NH2) | 50 to 200

same assay, conditions: functional assay of example 11; noteworthy = IC50 less than 200 nM

Structure (SMILES) | inhibitory activity (in words)
CCC[C@@H]1NC(=O)[C@H](Cc2c[nH]c3ccccc23)NC(=O)[C@@H](CC2CCCCC2)NC(=O)[C@@H]2CCCN2C(=O)[C@@H](NC(=O)[C@H](Cc2ccccc2)NC(C)=O)CCCNC1=O [Compound 31, Ac-Phe-[Orn-Pro-cha-Trp-Nva]] (Ac-F[Orn]P[dCha]W[Nva]; lactam 2-C) | without significant loss of activity

same assay, conditions: functional assay of example 11; noteworthy = IC50 less than 200 nM; listed as Ac-Phe-[Orn-Pro-cha-Trp-Nva]

Structure (SMILES) | inhibitory activity (in words)
CCC[C@@H]1NC(=O)[C@H](Cc2c[nH]c3ccccc23)NC(=O)[C@@H](CC2CCCCC2)NC(=O)[C@@H]2CCCN2C(=O)[C@@H](NC(=O)[C@H](Cc2ccccc2)NC(C)=O)CCCNC1=O [Compound 31, Ac-Phe-[Orn-Pro-cha-Trp-Nva]] (Ac-F[Orn]P[dCha]W[Nva]; lactam 2-C) | noteworthy inhibitory activity
